Assay results reported in a melting point compilation (Tetko et al.; mined from patent text by program, amines drawn as free bases though some values may be those of a salt).

Row | SMILES | melting point
1 | Cn1cc(C(=O)NCc2ccc(Cl)cc2)c(=O)c2cc(CN3CCCSCC3)ccc21 | 166 to 167 °C
2 | CN(Cc1ccc(S(C)(=O)=O)c(S(N)(=O)=O)c1)S(C)(=O)=O | 165 to 169 °C
3 | CC1=NN(c2cc(Cl)c(Sc3ccc(Cl)cc3)c(Cl)c2)C(=O)NC1 | 258 to 259 °C
4 | CC1(C)CCCC(C)(C)N1Cc1ccc2cc(NC(=O)c3ccc(-c4ccc(Cl)cc4)nc3)ccc2n1 | 258 to 259 °C
5 | CNC(NCCSCc1nccc(NC(N)=NCC(F)(F)F)n1)=C(C#N)C#N | 173 to 174 °C
6 | CCOC(=O)CCc1ccc(C(=O)c2ccc(Cl)cc2)n1C | 71.5 to 73 °C
7 | CC(C)Oc1ccc(N)c(C(=O)O)c1 | 120 to 122 °C
8 | CC(=O)Oc1cc(OC(C)=O)c(C)c(C(=O)OCC(Cl)(Cl)Cl)c1C | 127 to 128 °C
9 | Nc1c(F)c(N2C[C@@H](N)[C@@H](n3ccnn3)C2)c(F)c2c1c(=O)c(C(=O)O)cn2C1CC1 (relative stereo) | 275 to 277 °C
10 | COc1ccc2cc(-c3ccc(-n4nc(C)c(C)n4)c(Cl)c3)c(=O)oc2c1 | 170 °C
11 | CC(C)n1cc(Nc2nc(-c3ccc4cn[nH]c4c3)cn3ccnc23)cn1 | > 250 °C
12 | CCCCCNC(=O)n1cc(F)c(N)nc1=O | 289 to 292 °C
13 | C=CC12CCc3cc(O)ccc3C1=CCC1(C)C(O)CCC21 (stereo not drawn) | 149 to 150 °C
14 | CNc1nc(Nc2ccc(S(C)(=O)=O)cc2)ncc1[N+](=O)[O-] | 323 °C
15 | CC(C)(C)OC(=O)N(C(=O)OC(C)(C)C)c1c(C#CBr)c(C#N)nn1-c1c(Cl)cc(C(F)(F)F)cc1Cl | 130 to 131 °C
16 | O=C(O)c1cc(-n2c(-c3ccccc3)cc3c2CCCC3)ccc1S | 186 to 188 °C
17 | CCN(CC)C(=O)n1ccc(S(=O)(=O)c2cccc(Cl)c2C)n1 | 76 to 77 °C
18 | N#Cc1c[nH]cc1-c1cccc(Cl)c1F | 178 °C
19 | CC(C)OC(=O)C(Cl)(Cl)P(=O)(OC(C)C)c1ccccc1 (stereo not drawn) | 42 to 44 °C
20 | Cc1ccc2c(=O)c(S(=O)(=O)Cl)cn(C)c2c1 | > 300 °C
21 | O=C1CC(C(=O)O)C2(CCCCC2)C1 (stereo not drawn) | 146 to 147 °C
22 | CN1CCC(OC(c2cccc(C#CCCCN)c2)c2nc3ccccc3[nH]2)CC1 (stereo not drawn) | 82 °C
23 | CC(C)n1nc(-c2c(NCC(N)=O)nc(N)nc2-c2ccccc2)ccc1=O | 235 to 238 °C
24 | CN1CCN(Cc2ccc(-c3cc4c(Nc5ccc6[nH]ccc6c5)c(C#N)cnc4s3)nc2)CC1 | > 245 °C
25 | COc1ccc(S(=O)(=O)Nc2nc(-c3cccc([N+](=O)[O-])c3)c(CN(C)C)s2)cc1OC | 203 °C

Row | SMILES | melting point
26 | CC(C)(C)C(=O)Nc1ccc(SSc2ccc(NC(=O)C(C)(C)C)cc2C(N)=O)c(C(N)=O)c1 | 288 to 289 °C
27 | Nc1ccc(NNC(=O)c2ccccc2)cc1 | 134 to 136 °C
28 | O=C1CCCc2cc3c(cc21)sc1ccccc13 | 160 to 165 °C
29 | COc1ccc(I)cc1C(=O)O | 150 to 152 °C
30 | O=c1c2cccc3cccc(c32)c2nc3cc(C(F)(F)F)ccc3n12 | 212 to 214 °C
31 | O=c1n(-c2ccc(N3CCNCC3)cc2)cnn1CC(F)(F)C(F)F | 155 to 157 °C
32 | Nc1sc2c(c1C(=O)c1ccc(Cl)cc1)CCC(O)C2 (stereo not drawn) | 176 to 177 °C
33 | CN(CCO)Cc1ccc2c(c1)c(=O)c(C(=O)NCc1ccc(Cl)cc1)cn2C | 130 to 131 °C
34 | Cc1noc(C)c1S(=O)(=O)Nc1ccc2c(c1)S(=O)(=O)C=C(c1c(O)c3cc(F)ccc3n(CCC3CC3)c1=O)N2 | 150 to 157 °C
35 | COC(=O)C(CO)NS(=O)(=O)c1ccc(Oc2ccncc2)cc1 (stereo not drawn) | 137 to 139 °C
36 | CS(=O)(=O)Nc1ccc(C(=O)CN2CCN(c3cccnc3)CC2)cc1 | 197 to 198 °C
37 | C=C1C=Cc2cc(C(=O)Nc3ccccc3)ccc2OC1 | 139 °C
38 | O=C(NC(=O)c1c(F)cccc1F)Nc1ccc(-c2ccc(Cl)cc2)cn1 | 229 to 234 °C
39 | CCn1ncc2c3c(NCc4ccc(OC)c(Cl)c4)nnc(-n4cnc(C(=O)NC)c4)c3cnc21 | 181 to 183 °C
40 | CCc1ccc2[nH]c(C(=O)O)cc2c1 | 173 °C
41 | O=C(NCCN1CCCCC1)c1nc(NCC(c2ccccc2)c2ccccc2)c2nc[nH]c2n1 | 222 °C
42 | CCCCCCCCCCCCCCCCCC(=O)N1CC(O)C1 | 86 to 87.5 °C
43 | CC(C)C1=C(C#N)C(c2cccc3nocc23)c2c[nH]nc2N1 (stereo not drawn) | 245 °C
44 | Cc1cc(-c2c(-c3ccc(S(C)(=O)=O)cc3)cnn(-c3cccc(Cl)c3)c2=O)ccc1F | 228 to 230 °C
45 | N=C1c2c(F)cccc2S(=O)(=O)N1CC1CC1 | 90 to 93 °C
46 | Cn1c(C(F)(F)F)cc(=O)n(-c2ccc3snc(C4OCC(CS(C)(=O)=O)O4)c3c2)c1=O (stereo not drawn) | 184 to 188 °C
47 | O=C(CBr)c1coc2ccccc2c1=O | 140 to 145 °C
48 | O=C(NCCc1ccccc1)c1ccc(Cl)nc1 | 95 to 96 °C
49 | CN(C)c1ccc(CSC2=NC(C)(C)C(SCc3ccc(N(C)C)cc3)=N2)cc1 | 91 to 92 °C
50 | CC(C)C(NC(=O)c1ccc(C(=O)NCC(=O)OCc2ccccc2)cc1)C(=O)N1CCCC1C(=O)NC(C(=O)C(F)(F)F)C(C)C (mixture of isomers) | 77 to 78 °C

Row | SMILES | melting point
51 | CN(C)C(=O)c1cc(Cl)c(N)c(Cl)c1 | 134 °C
52 | CCOC(=O)C1=C(C)NC(COC(C)=O)=C(C(=O)OCC)C1c1ccccc1[N+](=O)[O-] (stereo not drawn) | 89 to 90 °C
53 | O=[N+]([O-])c1ccc(OCc2ccc(F)cc2)cc1F | 90 to 91 °C
54 | O=C(O)c1cc(F)c(F)cc1NC1CC1 | 175 to 176 °C
55 | COc1ccc2c(n1)c(C=O)c1n2Cc2ccccc2-1 | 229 to 230 °C
56 | CCC(C)n1cc(Cl)nc(N2CCc3cc(Br)cc(Cl)c32)c1=O (stereo not drawn) | 150 °C
57 | O=C(Nc1cccnc1NCc1ccc(Cl)cc1)c1ccccc1F | 76 to 78 °C
58 | CCOC(=O)NC(C)C(=O)c1ccc(O)c(Cl)c1 (stereo not drawn) | 106 to 108 °C
59 | COc1cc2c(cc1OC)C(c1c[nH]cn1)CCC2 (stereo not drawn) | 140 °C
60 | Cc1oc(-c2ccccc2)nc1COc1cccc(C=CC=C2OC(=O)NC2=O)c1 | 229 to 230 °C
61 | CCNCC1CCN(c2c(F)cc3c(=O)c(C(=O)O)cn(C4CC4)c3c2F)C1 (stereo not drawn) | 256 to 258 °C
62 | CC(C)Cc1nc2ccc(O)cc2c(-c2ccccc2F)c1C#N | 256 to 257 °C
63 | CCCCS(=O)(=O)c1ccc(NN)cc1 | 138 °C
64 | CC(Cc1c[nH]c2ccccc12)NC(=O)Oc1ccccc1 (stereo not drawn) | 89 to 92 °C
65 | CC[C@H](CO)Nc1nc(NCc2ccccc2)c2nnn(C(C)C)c2n1 | 115 to 118 °C
66 | Cc1c(CC(=O)OCCO[N+](=O)[O-])cc(-c2ccc(S(C)(=O)=O)cc2)n1-c1ccccc1 | 124 to 126 °C
67 | CS(=O)(=O)Nc1cccc(Nc2nc(NCc3cccnc3)c3nc[nH]c3n2)c1 | 144 to 147 °C
68 | COC(=O)c1cc(Cl)ncc1[N+](=O)[O-] | 60.5 to 64.1 °C
69 | CCOC(=O)c1[nH]c2cc(F)c(Cl)cc2c1Sc1cc(C)cc(C)c1 | 170 to 173 °C
70 | C=Cc1cc2c(Cl)cc(F)c(-n3c(=O)cc(C(F)(F)F)n(C)c3=O)c2o1 | 108 to 109 °C
71 | Cc1ccc(NC(=O)c2cccc(C(F)(F)F)c2)cc1-c1ccc2cnncc2c1 | 97 to 100 °C
72 | OC(CNCCN(c1ccccc1)c1ccccc1)COc1ccccc1 (stereo not drawn) | 95 to 96 °C
73 | CN1C(=O)[C@H](NC(=O)CCc2ccc(Cl)cc2Cl)N=C(c2ccccc2)c2cc(N)ccc21 | 179 to 180 °C
74 | C#CCN1C(=O)NC(C)(C)C1=O | 156 to 160 °C
75 | O=C(O)c1ccc(-c2ccc(C(F)(F)F)cc2)s1 | 227 °C

Row | SMILES | melting point
76 | O=[N+]([O-])c1ccc(NS(=O)(=O)c2cc(Cl)c(Cl)cc2Cl)c(Cl)c1 | 177 to 179 °C
77 | CNC(=O)COc1ccc2c(-c3ccccc3F)noc2c1Cl | 164 °C
78 | CS(=O)(=O)c1ccc(C(Br)C(=O)c2ccc(F)cc2)cc1 (stereo not drawn) | 140 to 141 °C
79 | COc1ccc(C2=NN(CCCCCCN)C(=O)[C@H]3CC=CC[C@@H]23)cc1OC (relative stereo) | 141 to 143 °C
80 | COc1nc(-c2ccc(OC(C)C)cc2)sc1C(=O)O | 109 to 110 °C
81 | COCCOc1cc(NC(=O)OC(C)(C)C)c(NC(=O)CC(=O)c2cccc(C#N)c2)cc1C#Cc1ccccc1 | 175 to 176 °C
82 | Cc1c(C(F)(F)F)nc(C(F)(F)F)c(C(=O)O)c1O | 155 to 159 °C
83 | Cc1ccc2nc(C)c(=O)n(-c3ccc(Cl)cc3)c2c1 | 144 to 145 °C
84 | COc1ccccc1C=Cc1nc2c(c(=O)n(C)c(=O)n2C)n1C | 238 to 240 °C
85 | c1ccc(C(OC2CCN(CCCCNc3ccc4ncnn4n3)CC2)c2ccccc2)cc1 | 102 to 104 °C
86 | COC1=C(OC)C(=O)C2=C(CC(CCCCCCCCO)C2)C1=O | 56 to 58 °C
87 | O=C1Nc2ccccc2C12COc1cc3c(cc12)N(Cc1ccccn1)CC=N3 (stereo not drawn) | 232 to 233 °C
88 | COc1ccc(-c2cc(C)cn2-c2ccc(S(N)(=O)=O)cc2)cc1C | 149 to 151 °C
89 | CCC(=O)Nc1c(C(=O)c2cc(Cl)ccn2)[nH]c2cc(Cl)ccc12 | 188 to 190 °C
90 | NC(=O)c1ccc(OCc2ccccc2)cc1CCN1CCNCC1 | 116 to 118 °C
91 | CCc1c(C(=O)C(N)=O)c2c(NCC(=O)O)cccc2n1Cc1ccccc1 | 151 to 157 °C
92 | NS(=O)(=O)c1ccc(-c2cc(-c3nc(-c4ccc(C(F)(F)F)cc4F)cc(C(F)(F)F)n3)ccn2)s1 | 228 °C
93 | CCOc1cc2c(c3c1OC(C)(C)C3)C(c1cccc(N3C(=O)CNC3=O)c1)=NC(C)(C)C2 | 202 to 204 °C
94 | NS(=O)(=O)c1ccc(-c2noc(-c3cnn4c(C(F)(F)F)cc(-c5ccc(C(F)(F)F)c(OCC(F)(F)F)c5)nc34)n2)s1 | 255 °C
95 | O=C(COc1ccc2c(c1)OCO2)c1ccccc1 | 123 to 126 °C
96 | Cc1ccc2[nH]c(C(=O)O)cc2c1O | 262 °C
97 | Nc1c2c(nc3ccccc13)C1C=CC2C1 (stereo not drawn) | 123 °C
98 | O=C(NC(=O)c1ccccc1Cl)Nc1ccc(C=C(Br)Br)cc1 | 190 °C
